The test system of assay [1] is blackgrass. Put plainly: Test A preemergence. It counts as in vivo, Alopecurus myosuroides. As to conditions: 1000 g ai/ha, 0 to 100 scale (0 no effect, 100 complete control), 10 days; for pest or weed control at 1000 g/ha: Alopecurus myosuroides, pre-emergence, 240 h, read-out: Plant response rating, Blackgrass. The text has this: (§1) Seeds of plant species selected from barnyardgrass (Echinochloa crusgalli), blackgrass (Alopecurus myosuroides), corn (Zea mays), foxtail, giant (giant foxtail, Setaria faberi), goosegrass (Eleusine indica), kochia (Bassia scoparia), oat, wild (wild oat, Avena fatua), pigweed, palmer (palmer amaranth, palmer pigweed, Amaranthus palmeri), Pigweed, Redroot (redroot pigweed, Amaranthus retroflexus), ragweed (common ragweed, Ambrosia artemisiifolia), ryegrass, Italian (italian ryegrass, Lolium multiflorum), soybean (Glycine max), and wheat (Triticum aestivum) were planted into a blend of loam soil and sand and treated preemergence with a directed soil spray using test chemicals formulated in a non-phytotoxic solvent mixture which included a surfactant. At the same time, plants selected from these crops and weed species and also galium (catchweed bedstraw, Galium aparine) and horseweed (Erigeron canadensis) were planted in pots containing the same blend of loam soil and sand and treated with postemergence applications of test chemicals formulated in the same manner. Plants ranged in height from 2 to 10 cm and were in the one- to two-leaf stage for the postemergence treatment. Treated plants and untreated controls were maintained in a greenhouse for 10 days, after which time all treated plants were compared to untreated controls and visually evaluated for injury. Plant response ratings, summarized in Table A, are based on a 0 to 100 scale where 0 is no effect and 100 is complete control. A dash (-) response means no test result.

Assay [2] deals with foxtail, giant. The assay can be described thus: Test A preemergence. It is filed as in vivo, Setaria faberi. As to conditions: 1000 g ai/ha, 0 to 100 scale (0 no effect, 100 complete control), 10 days; for pest or weed control at 1000 g/ha: Setaria faberi, pre-emergence, 240 h, read-out: Plant response rating, Foxtail, Giant.
Description: as §1

The subject of assay [3] is goosegrass. Put plainly: Test A preemergence. It counts as in vivo, Eleusine indica. As to conditions: 1000 g ai/ha, 0 to 100 scale (0 no effect, 100 complete control), 10 days; for pest or weed control at 1000 g/ha: Eleusine indica, pre-emergence, 240 h, read-out: Plant response rating, Goosegrass.
Description: as §1

Assay [4] concerns kochia. The assay can be described thus: Test A preemergence. Conditions: 1000 g ai/ha, 0 to 100 scale (0 no effect, 100 complete control), 10 days; for pest or weed control at 1000 g/ha: Bassia scoparia, pre-emergence, 240 h, read-out: Plant response rating, Kochia. It counts as in vivo, Bassia scoparia.
Description: as §1

In assay [5] the test system is pigweed, palmer. Put plainly: Test A preemergence. It is filed as in vivo, Amaranthus palmeri. As to conditions: 1000 g ai/ha, 0 to 100 scale (0 no effect, 100 complete control), 10 days; for pest or weed control at 1000 g/ha: Amaranthus palmeri, pre-emergence, 240 h, read-out: Plant response rating, Pigweed, Palmer.
Description: as §1

For assay [6], the system named is ragweed. Put plainly: Test A preemergence. It counts as in vivo, Ambrosia artemisiifolia. Conditions: 1000 g ai/ha, 0 to 100 scale (0 no effect, 100 complete control), 10 days; for pest or weed control at 1000 g/ha: Ambrosia artemisiifolia, pre-emergence, 240 h, read-out: Plant response rating, Ragweed.
Description: as §1

Assay [7] has as its system ryegrass, Italian. The assay can be described thus: Test A preemergence. It is filed as in vivo, Lolium multiflorum. As to conditions: 1000 g ai/ha, 0 to 100 scale (0 no effect, 100 complete control), 10 days; for pest or weed control at 1000 g/ha: Lolium multiflorum, pre-emergence, 240 h, read-out: Plant response rating, Ryegrass, Italian.
Description: as §1

Assay [8] has as its system blackgrass. The assay can be described thus: Test A postemergence. It counts as in vivo, Alopecurus myosuroides. As to conditions: 1000 g ai/ha, Postemergence, 0 to 100 scale; for pest or weed control at 1000 g/ha: Alopecurus myosuroides, post-emergence, 240 h, read-out: Plant response rating, Blackgrass.
Description: as §1

The subject of assay [9] is foxtail, giant. Put plainly: Test A postemergence. Conditions: 1000 g ai/ha, Postemergence, 0 to 100 scale; for pest or weed control at 1000 g/ha: Setaria faberi, post-emergence, 240 h, read-out: Plant response rating, Foxtail, Giant. It is filed as in vivo, Setaria faberi.
Description: as §1

The test system of assay [10] is goosegrass. Put plainly: Test A postemergence. Conditions: 1000 g ai/ha, Postemergence, 0 to 100 scale; for pest or weed control at 1000 g/ha: Eleusine indica, post-emergence, 240 h, read-out: Plant response rating, Goosegrass. It is filed as in vivo, Eleusine indica.
Description: as §1

For assay [11], the system named is kochia. The assay can be described thus: Test A postemergence. It counts as in vivo, Bassia scoparia. Conditions: 1000 g ai/ha, Postemergence, 0 to 100 scale; for pest or weed control at 1000 g/ha: Bassia scoparia, post-emergence, 240 h, read-out: Plant response rating, Kochia.
Description: as §1

The subject of assay [12] is pigweed, palmer. The assay can be described thus: Test A postemergence. It counts as in vivo, Amaranthus palmeri. As to conditions: 1000 g ai/ha, Postemergence, 0 to 100 scale; for pest or weed control at 1000 g/ha: Amaranthus palmeri, post-emergence, 240 h, read-out: Plant response rating, Pigweed, Palmer.
Description: as §1

For assay [13], the system named is ragweed. Put plainly: Test A postemergence. It counts as in vivo, Ambrosia artemisiifolia. Conditions: 1000 g ai/ha, Postemergence, 0 to 100 scale; for pest or weed control at 1000 g/ha: Ambrosia artemisiifolia, post-emergence, 240 h, read-out: Plant response rating, Ragweed.
Description: as §1

The test system of assay [14] is ryegrass, Italian. The assay can be described thus: Test A postemergence. It is filed as in vivo, Lolium multiflorum. Conditions: 1000 g ai/ha, Postemergence, 0 to 100 scale; for pest or weed control at 1000 g/ha: Lolium multiflorum, post-emergence, 240 h, read-out: Plant response rating, Ryegrass, Italian.
Description: as §1

Another assay has as its system galium. Put plainly: Test A postemergence. It counts as in vivo, Galium aparine. Conditions: 1000 g ai/ha, Postemergence, 0 to 100 scale; for pest or weed control at 1000 g/ha: Galium, post-emergence, 240 h, read-out: Plant response rating, Galium.
Description: as §1

In a further assay the test system is horseweed. Put plainly: Test A postemergence. It counts as in vivo, Erigeron canadensis. Conditions: 1000 g ai/ha, Postemergence, 0 to 100 scale; for pest or weed control at 1000 g/ha: Erigeron canadensis, post-emergence, 240 h, read-out: Plant response rating, Horseweed.
Description: as §1

A further assay relates to barnyardgrass. The assay can be described thus: Test B flooded paddy test. Conditions: 250 g ai/ha, Flood, 13 days, 0 to 100 scale (0 no effect, 100 complete control); for pest or weed control at 250 g/ha: Echinochloa crus-galli, 312 h, read-out: Plant response rating, Barnyardgrass. It counts as in vivo, Echinochloa crus-galli. The method, then: (§2) Plant species in the flooded paddy test selected from barnyardgrass (Echinochloa crus-galli), ducksalad (Heteranthera limosa), rice (Oryza sativa), and sedge, umbrella (small-flower umbrella sedge, Cyperus difformis) were grown to the 2-leaf stage for testing. At time of treatment, test pots were flooded to 3 cm above the soil surface, treated by application of test compounds directly to the paddy water, and then maintained at that water depth for the duration of the test. Treated plants and controls were maintained in a greenhouse for 13 days, after which time all species were compared to controls and visually evaluated. Plant response ratings, summarized in Table B, are based on a scale of 0 to 100 where 0 is no effect and 100 is complete control. A dash (-) response means no test result.

The subject of a further assay is ducksalad. The assay can be described thus: Test B flooded paddy test. It is filed as in vivo, Heteranthera limosa. Conditions: 250 g ai/ha, Flood, 13 days, 0 to 100 scale (0 no effect, 100 complete control); for pest or weed control at 250 g/ha: Heteranthera limosa, 312 h, read-out: Plant response rating, Ducksalad. The procedure: as §2
The test system of another assay is rice. Put plainly: Test B flooded paddy test. It counts as in vivo, Oryza sativa. Conditions: 250 g ai/ha, Flood, 13 days, 0 to 100 scale (0 no effect, 100 complete control); for plant injury at 250 g/ha: Oryza sativa, 312 h, read-out: Plant response rating, Rice. The method, then: as §2
For the next assay, the system named is sedge, umbrella. The assay can be described thus: Test B flooded paddy test. It counts as in vivo, Cyperus difformis. As to conditions: 250 g ai/ha, Flood, 13 days, 0 to 100 scale (0 no effect, 100 complete control); for pest or weed control at 250 g/ha: Cyperus difformis, 312 h, read-out: Plant response rating, Sedge, Umbrella. The procedure: as §2

As to `Cc1cccc2c1O[C@@H](C(F)(F)F)CN2C(=O)c1cccc(-n2cncn2)c1` (single isomer, unassigned) [Compound 68], the pest or weed control at 1000 g/ha worked out at 80% in the assay on blackgrass [1]; 100% in the assay on foxtail, giant [2]; 100% in the assay with goosegrass [3]; 90% with kochia [4]; 100% in the assay on pigweed, palmer [5]; 70% in the assay on ragweed [6]. Moreover, the pest or weed control at 1000 g/ha in the assay on ryegrass, Italian [7] came to 100%; in the assay on blackgrass [8] it was 80%; in the assay with foxtail, giant [9], 90%; in the assay on goosegrass [10], 90%; in the assay on kochia [11], 80%; with pigweed, palmer [12], 50%. Further, the pest or weed control at 1000 g/ha was found to be 60% with ragweed [13]; 90% in the assay on ryegrass, Italian [14]; 100% with galium; 0% in the assay with horseweed. Moreover, the pest or weed control at 250 g/ha was 0% with barnyardgrass; 55% in the assay with ducksalad; 65% with sedge, umbrella. In addition, the plant injury at 250 g/ha with rice turned out to be 0%.
As to `O=C(c1ccnc(-n2cncn2)c1)N1CC(C(F)(F)F)Oc2c(Cl)cccc21` (centres unmarked) [Compound 34], the “Plant response rating, Blackgrass” value in the assay on blackgrass [1] is reported as 80; in the assay on blackgrass [8], 70. In addition, the “Plant response rating, Foxtail, Giant” value in the assay with foxtail, giant [2] came out at 100; in the assay on foxtail, giant [9] it was 100. For the same compound, the entries for the “Plant response rating, Goosegrass” value with goosegrass [3] and in the assay on goosegrass [10] were 100 and 50, respectively. Moreover, the results for the “Plant response rating, Kochia” value with kochia [4] and with kochia [11] were 90 and 100, respectively. For the same compound, the “Plant response rating, Pigweed, Palmer” value was 100 in the assay with pigweed, palmer [5] and 80 in the assay on pigweed, palmer [12]. The entries for the “Plant response rating, Ragweed” value in the assay on ragweed [6] and with ragweed [13] were 20 and 50, respectively. The “Plant response rating, Ryegrass, Italian” value in the assay on ryegrass, Italian [7] is on record as 90; in the assay with ryegrass, Italian [14], 90. For the same compound, the “Plant response rating, Galium” value in the assay on galium is 100. Also, in the assay on horseweed, the “Plant response rating, Horseweed” value came to 0. The “Plant response rating, Barnyardgrass” value in the assay on barnyardgrass is 0. Besides, the “Plant response rating, Ducksalad” value with ducksalad is reported as 0. Further, the “Plant response rating, Rice” value with rice was 0. Moreover, the “Plant response rating, Sedge, Umbrella” value in the assay on sedge, umbrella was 0.
As to `COc1cccc2c1OC(C)CN2C(=O)c1cccc(-n2cncn2)c1` (centres unmarked) [Compound 41], the “Plant response rating, Blackgrass” value was 30 in the assay with blackgrass [1] and 50 with blackgrass [8]. The “Plant response rating, Foxtail, Giant” value in the assay on foxtail, giant [2] is 90; in the assay with foxtail, giant [9], 60. Besides, the “Plant response rating, Goosegrass” value in the assay with goosegrass [3] is 90; in the assay with goosegrass [10], 0. In addition, the “Plant response rating, Kochia” value in the assay with kochia [4] is listed as 0; in the assay with kochia [11], 20. In addition, the “Plant response rating, Pigweed, Palmer” value is 30 in the assay on pigweed, palmer [5] and 20 in the assay on pigweed, palmer [12]. The “Plant response rating, Ragweed” value with ragweed [6] and in the assay on ragweed [13] was 0 each time. In addition, the “Plant response rating, Ryegrass, Italian” value with ryegrass, Italian [7] is 70; in the assay on ryegrass, Italian [14] it was 60. The “Plant response rating, Galium” value in the assay on galium is 70. In addition, the “Plant response rating, Horseweed” value in the assay with horseweed stood at 0. The “Plant response rating, Barnyardgrass” value in the assay with barnyardgrass was 0. The “Plant response rating, Ducksalad” value with ducksalad stood at 50. Moreover, the “Plant response rating, Rice” value in the assay on rice is on record as 0. Besides, the “Plant response rating, Sedge, Umbrella” value in the assay with sedge, umbrella is listed as 55.
On to `COCC1CN(C(=O)c2ccnc(-n3cncn3)c2)c2cccc(Cl)c2O1` (centres unmarked) [Compound 35, [8-Chloro-2,3-dihydro-2-(methoxymethyl)-4H-1,4-benzoxazin-4-yl][2-(1H-1,2,4-triazol-1-yl)-4-pyridinyl]methanone], for which the pest or weed control at 1000 g/ha in the assay on blackgrass [1] was 70%; in the assay with foxtail, giant [2], 100%; in the assay on goosegrass [3], 90%; in the assay with kochia [4], 50%; in the assay with pigweed, palmer [5], 90%; with ragweed [6], 20%. Further, the pest or weed control at 1000 g/ha in the assay on ryegrass, Italian [7] was 90%; in the assay on blackgrass [8], 60%; with foxtail, giant [9] it was 90%; in the assay on goosegrass [10], 50%; in the assay with kochia [11], 50%; with pigweed, palmer [12], 50%. Besides, the pest or weed control at 1000 g/ha amounted to 50% in the assay with ragweed [13]; 80% with ryegrass, Italian [14]; 80% with galium; 20% in the assay with horseweed. The pest or weed control at 250 g/ha amounted to 0% in the assay on barnyardgrass; 30% in the assay on ducksalad; 40% with sedge, umbrella. In addition, in the assay with rice, the plant injury at 250 g/ha came out at 0%.

The record behind these values is patent US20260262643A1, “HERBICIDAL BENZOXAZINES” (FMC CORPORATION, priority 2022, published 2026).
